# In US20060128695A1, “Cyclic nucleotide phosphodiesterase inhibitors, preparation and uses” (NEURO3D, priority 2002, published 2006):
# Target: T1, PDE2 (Bos taurus, UniProt P14099)
# T1 construct: PDE2 was prepared from bovine endothelial cells by the same methods; endogenous in cells; host or cells: bovine endothelial cells
# T1 sequence (P14099 1-921): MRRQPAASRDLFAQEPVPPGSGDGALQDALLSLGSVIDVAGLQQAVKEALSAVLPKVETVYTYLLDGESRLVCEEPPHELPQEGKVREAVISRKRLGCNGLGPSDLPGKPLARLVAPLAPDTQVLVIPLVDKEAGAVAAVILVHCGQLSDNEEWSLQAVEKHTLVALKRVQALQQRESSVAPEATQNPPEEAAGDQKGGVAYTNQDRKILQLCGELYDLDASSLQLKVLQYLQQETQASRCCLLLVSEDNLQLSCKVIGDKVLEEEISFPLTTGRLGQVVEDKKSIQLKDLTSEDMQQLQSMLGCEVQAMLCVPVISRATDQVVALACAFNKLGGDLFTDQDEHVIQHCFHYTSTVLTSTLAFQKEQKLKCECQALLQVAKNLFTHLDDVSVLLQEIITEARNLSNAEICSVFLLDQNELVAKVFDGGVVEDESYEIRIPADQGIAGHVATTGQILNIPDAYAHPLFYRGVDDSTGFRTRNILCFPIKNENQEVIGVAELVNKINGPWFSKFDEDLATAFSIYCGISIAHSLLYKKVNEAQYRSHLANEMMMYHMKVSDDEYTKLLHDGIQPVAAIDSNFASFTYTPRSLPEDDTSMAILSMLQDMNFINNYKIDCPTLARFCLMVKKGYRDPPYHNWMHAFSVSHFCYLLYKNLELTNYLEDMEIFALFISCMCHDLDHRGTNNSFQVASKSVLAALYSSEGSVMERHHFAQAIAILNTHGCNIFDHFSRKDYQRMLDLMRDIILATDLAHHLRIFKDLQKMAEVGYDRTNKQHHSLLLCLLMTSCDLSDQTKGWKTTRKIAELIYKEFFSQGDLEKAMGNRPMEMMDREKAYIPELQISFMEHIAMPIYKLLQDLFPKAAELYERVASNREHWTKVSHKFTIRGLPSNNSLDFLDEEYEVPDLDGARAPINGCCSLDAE
# Assay: Inhibition of PDE2, radioenzymatic phosphodiesterase assay
# Format: biochemical, bovine
# Settings: not given
row,Compound,IC50 [µM]
1,"COc1cc2c(cc1OC)N(C)C(=O)CN=C2c1cccc([N+](=O)[O-])c1 [Compound 17c, 7,8-dimethoxy-1-methyl-5-(3-nitrophenyl)-1,3-dihydro-1,4-benzodiazepin-2-one]",6.1
2,"COc1cc2c(cc1OC)N(C)C(=O)CN=C2c1cccc(C(=O)NCc2ccccc2)c1 [Compound 36b, N-benzyl-3-(7,8-dimethoxy-1-methyl-2-oxo-2,3-dihydro-1H-1,4-benzodiazepin-5-yl) benzamide]",3.1
3,"COc1cc2c(cc1OC)N(C)C(=O)CN=C2c1cccc(C#N)c1 [Compound 4a, 3-(7,8-dimethoxy-1-methyl-2-oxo-2,3-dihydro-1H-1,4-benzodiazepin-5-yl)-benzonitrile]",6.7
4,"CCCCC#Cc1cccc(C2=NCC(=O)N(C)c3cc(OC)c(OC)cc32)c1 [Compound 6b, 7,8-dimethoxy-5-(3′-hex-1-ynylphenyl)-1-N-methyl-1,3-dihydro-2H-1,4-benzodiazepin-2-one]",1.06
5,"COc1cc2c(cc1OC)C(c1cccc(C(N)=O)c1)=NCC(=O)N2 [Compound 5e, 3-(7,8-dimethoxy-2-oxo-2,3-dihydro-1H-1,4-benzodiazepin-5-yl)benzamide]",6.6
6,"COc1cc2c(cc1OC)N(C)C(=O)CN=C2c1cccc(C(=O)NCCCc2ccccc2)c1 [Compound 36f, 3-(7,8-dimethoxy-1-methyl-2-oxo-2,3-dihydro-1H-1,4-benzodiazepin-5-yl)-N-(3-phenylpropyl)benzamide]",2.8
7,"COc1cc2c(cc1OC)N(C)C(=O)CN=C2c1cccc(CCCCCC(N)=O)c1 [Compound 6i, 6-[3-(7,8-dimethoxy-1-methyl-2-oxo-2,3-dihydro-1H-1,4-benzodiazepin-5-yl)phenyl]hexanamide]",5.6
8,"COc1cc2c(cc1OC)N(C)C(=O)CN=C2c1cccc(C(C)=O)c1 [Compound 17e, 5-(3-acetylphenyl)-7,8-dimethoxy-1-methyl-1,3-dihydro-1,4-benzodiazepin-2-one]",6.7
9,"COc1cc2c(cc1OC)N(C)C(=O)CN=C2c1cncc2ccccc12 [Compound 17f, 5-(4-isoquinolinyl)-7,8-dimethoxy-1-methyl-1,3-dihydro-1,4-benzodiazepin-2-one]",4.7
10,"COc1cccc2c1C(c1cccc(C#N)c1)=NCC(=O)N2 [Compound 28b, 3-(6-methoxy-2-oxo-2,3-dihydro-1H-1,4-benzodiazepin-5-yl)benzonitrile]",88
11,"COc1ccc2c(c1)N(C)C(=O)CN=C2c1cccc(C(N)=O)c1 [Compound 5l, 3-(8-methoxy-1-methyl-2-oxo-2,3-dihydro-1H-1,4-benzodiazepin-5-yl)benzamide]",14
12,"COc1cc2c(cc1OC)N(Cc1ccccc1)C(=O)CN=C2c1cccc(C#N)c1 [Compound 4m, 3-(1-benzyl-7,8-dimethoxy-2-oxo-2,3-dihydro-1H-1,4-benzodiazepin-5-yl)benzonitrile]",1.5
13,"CCCCCCc1cccc(C2=NCC(=O)N(C)c3cc(OC)c(OC)cc32)c1 [Compound 6e, 7,8-dimethoxy-5-(3′-hexylphenyl)-1-N-methyl-1,3-dihydro-2H-1,4-benzodiazepin-2-one]",0.36
14,"COc1cc2c(cc1OC)N(C)C(=O)CN=C2c1ccc(Cl)c(Cl)c1 [Compound 17j, 5-(3,4-dichlorophenyl)-7,8-dimethoxy-1-methyl-1,3-dihydro-1,4-benzodiazepin-2-one]",7

# Same assay, conditions: 1 μM cyclic AMP; PDE2 from bovine endothelial cells; read-out: PDE2 IC50
row,Compound,IC50 [µM]
1,"tert-butyl-3-[5-(cyanophenyl)-(7,8-dimethoxy-1-methyl-2-oxo-2,3-dihydro-1H-1,4-benzodiazepin-6-yl)phenyl]prop-2-ynylcarbamate [Compound 25e]",5
2,"Tert-butyl-3-[5-(cyanophenyl)-(7,8-dimethoxy-1-methyl-2-oxo-2,3-dihydro-1H-1,4-benzodiazepin-9-yl)phenyl]prop-2-ynylcarbamate [Compound 25c]",3.4

# Same assay, conditions: 10 μM test compound; PDE2 from bovine endothelial cells
row,Compound,PDE2 percentage inhibition at 10 μM [%]
1,"COc1cc2c(cc1OC)C(c1cccc(C(F)(F)F)c1)=NCC(=O)N2 [Compound 3d, 7,8-dimethoxy-[5-(3-trifluoromethyl)phenyl]-1,3-dihydro-2H-1,4-benzodiazepin-2-one]",22
2,"COc1cc2c(cc1OC)N(C)C(=O)CN=C2c1cccc(C(=O)N2CCN(Cc3ccccc3)CC2)c1 [Compound 36e, 5-{3-[(4-benzylpyperazin-1-yl)carbonyl]phenyl}7,8-dimethoxy-1-methyl-2-oxo-2,3-dihydro-1H-1,4-benzodiazepin-2-one]",27
3,"[9-(3-aminoethynyl)-7,8-dimethoxy-1-methyl-2-oxo-2,3-dihydro-1H-1,4-benzodiazepin-5-yl]benzonitrile [Compound 25f]",0

# Same assay, conditions: 10 μM test compound; PDE2 from bovine endothelial cells; read-out: PDE2 percentage inhibition at 10 μM
row,Compound,inhibition at 10 µM [%]
1,"COc1cc2c(cc1OC)N(C)C(=O)CN=C2c1cccc(C(=O)N(C)C)c1 [Compound 36d, 3-(7,8-dimethoxy-1-methyl-2-oxo-2,3-dihydro-1H-1,4-benzodiazepin-5-yl)-N,N-dimethylbenzamide]",17
2,"COc1cc2c(cc1OC)N(C)C(=O)CN=C2c1cccc(C(N)=S)c1 [Compound 9a, 3-(7,8-dimethoxy-1-methyl-2-oxo-2,3-dihydro-1H-1,4-benzodiazepin-5-yl)thiobenzamide]",85

# Same assay, conditions: read-out: PDE2 percentage inhibition at 10 μM
row,Compound,inhibition at 10 µM [%]
1,"COc1cc2c(c(-c3ccccc3)c1OC)N(C)C(=O)CN=C2c1cccc(C(N)=O)c1 [Compound 5m, 3-(7,8-dimethoxy-1-methyl-2-oxo-9-phenyl-2,3-dihydro-1H-1,4-benzodiazepin-5-yl)benzamide]",5.9
2,"COc1cc2c(cc1OC)N(Cc1ccc(C(F)(F)F)cc1)C(=O)CN=C2c1cccc(C#N)c1 [Compound 4i, 3-{7,8-dimethoxy-2-oxo-1-[4-(trifluoromethyl)benzyl]-2,3-dihydro-1H-1,4-benzodiazepin-5-yl}-benzonitrile]",15.7
3,"COc1ccc2c(c1)C(c1ccccc1)=NCC(=O)N2 [Compound 28e, 7-methoxy-5-phenyl-1,3-dihydro-2H-1,4-benzodiazepin-2-one]",8.8
4,"COc1ccc2c(c1)C(c1cccc(C#N)c1)=NCC(=O)N2 [Compound 28c, 3-(7-methoxy-2-oxo-2,3-dihydro-1H-1,4-benzodiazepin-5-yl)benzonitrile]",46.5
5,"COc1cc2c(cc1OC)N(Cc1cccc(Cl)c1)C(=O)CN=C2c1cccc(C#N)c1 [Compound 4f, 3-[1-(3-chlorobenzyl)-7,8-dimethoxy-2-oxo-2,3-dihydro-1H-1,4-benzodiazepin-5-yl]-benzonitrile]",17.1
6,"COc1cc2c(cc1OC)N(C)C(=O)CN=C2c1cccc(C(=O)NCCCCCC(N)=O)c1 [Compound 36c, N-(6-amino-6-oxohexyl)-3-(7,8-dimethoxy-1-methyl-2-oxo-2,3-dihydro-1H-1,4-benzodiazepin-5-yl)benzamide]",46
7,"COc1cc2c(cc1OC)N(C)C(=O)CN=C2c1cccc(-c2cccc(C(N)=O)c2)c1 [Compound 6o, 3′-(7,8-dimethoxy-1-methyl-2-oxo-2,3-dihydro-1H-1,4-benzodiazepin-5-yl)-1,1′-biphenyl-3-carboxamide]",79.3
8,"COc1cc2c(cc1OC)N(C)C(=O)C(Cc1ccc(Cl)c(Cl)c1)N=C2c1cccc(C(N)=O)c1 (centres unmarked) [Compound 5k, 3-[3-(3,4-dichlorobenzyl)-7,8-dimethoxy-1-methyl-2-oxo-2,3-dihydro-1H-1,4-benzodiazepin-5-yl]benzamide]",67.8
9,"COc1cc2c(cc1OC)N(Cc1ccccc1Cl)C(=O)CN=C2c1cccc(C#N)c1 [Compound 4h, 3-[1-(2-chlorobenzyl)-7,8-dimethoxy-2-oxo-2,3-dihydro-1H-1,4-benzodiazepin-5-yl]-benzonitrile]",16
10,"CCOC(=O)CN1C(=O)CN=C(c2cccc(C(N)=O)c2)c2cc(OC)c(OC)cc21 [Compound 5i, Ethyl{5-[3-(aminocarbonyl)phenyl]-7,8-dimethoxy-2-oxo-2,3-dihydro-1H-1,4-benzodiazepin-1-yl}acetate]",0
11,"COc1cc2c(c(Br)c1O)C(c1cccc(C#N)c1)=NCC(=O)N2 [Compound 23b, 3-(6-bromo-7-hydroxy-8-methoxy-2-oxo-2,3-dihydro-1H-1,4-benzodiazepin-5-yl)benzonitrile]",20.1
12,"COc1cccc2c1C(c1cccc(C#N)c1)=NCC(=O)N2 [Compound 28b, 3-(6-methoxy-2-oxo-2,3-dihydro-1H-1,4-benzodiazepin-5-yl)benzonitrile]",34.5
13,"COc1cc2c(cc1OC)N(C)C(=O)C(C)N=C2c1cccc(C#N)c1 (centres unmarked) [Compound 7d, 3-(7,8-dimethoxy-1,3-dimethyl-2-oxo-2,3-dihydro-1H-1,4-benzodiazepin-5-yl)benzonitrile]",33.8
14,"COc1cccc2c1C(c1ccccc1)=NCC(=O)N2 [Compound 28d, 6-methoxy-5-phenyl-1,3-dihydro-2H-1,4-benzodiazepin-2-one]",4.7
